Values joined by “and” are separate entries in the source; they are usually repeats but may differ in a detail not shown here. Equal entries are not always repeated. Toxic doses and inconclusive results are not listed. Rule as the data show it: active = T/C of 150% or more; inactive = T/C below 125%. Square brackets hold non-standard residues; d marks the D form. Peptide text beside a SMILES is read from it. * marks the point of attachment. ξ: configuration not given here. Cbz = O=C(OCc1ccccc1)*; ξT = CC(O)C(N)C(=O)O; OBn = c1ccc(CO*)cc1
Tested on: L1210 leukemia ip in BDF1 mice, survival T/C
Assay: NCI In Vivo Anticancer Drug Screen. Data for tumor model L1210 Leukemia (intraperitoneal) in B6D2F1 (BDF1) mice
Conditions: endpoint: mean survival time, higher = longer survival
How it was run: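 Ratio derived from survival: compound-dosed mice over vehicle-dosed mice, all bearing a transplantable tumor.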

[1] = dose: 100.0 mg/kg/injection, schedule: Q04DX002 (ip), vehicle: Klucel (hydroxypropylcellulose) (HPC)
[2] = dose: 200.0 mg/kg/injection, schedule: Q04DX002 (ip), vehicle: Klucel (hydroxypropylcellulose) (HPC)
[3] = dose: 400.0 mg/kg/injection, schedule: Q04DX002 (ip), vehicle: Klucel (hydroxypropylcellulose) (HPC)
[4] = dose: 75.0 mg/kg/injection, schedule: Q01DX001 (ip), vehicle: saline
[5] = dose: 150.0 mg/kg/injection, schedule: Q01DX001 (ip), vehicle: saline
[6] = dose: 300.0 mg/kg/injection, schedule: Q01DX001 (ip), vehicle: saline
[7] = dose: 100.0 mg/kg/injection, schedule: Q01DX001 (ip), vehicle: carboxymethylcellulose (CMC)
[8] = dose: 200.0 mg/kg/injection, schedule: Q01DX001 (ip), vehicle: carboxymethylcellulose (CMC)
[9] = dose: 100.0 mg/kg/injection, schedule: Q04DX003 (ip), vehicle: saline with Tween-80
[10] = dose: 100.0 mg/kg/injection, schedule: Q01DX009 (ip), vehicle: saline with Tween-80
[11] = dose: 200.0 mg/kg/injection, schedule: Q01DX009 (ip), vehicle: saline with Tween-80
[12] = dose: 400.0 mg/kg/injection, schedule: Q01DX009 (ip), vehicle: saline with Tween-80
[13] = dose: 50.0 mg/kg/injection, schedule: Q01DX001 (ip), vehicle: carboxymethylcellulose (CMC)
[14] = dose: 25.0 mg/kg/injection, schedule: Q04DX003 (ip), vehicle: Klucel (hydroxypropylcellulose) (HPC)
[15] = dose: 50.0 mg/kg/injection, schedule: Q04DX003 (ip), vehicle: Klucel (hydroxypropylcellulose) (HPC)
[16] = dose: 100.0 mg/kg/injection, schedule: Q04DX003 (ip), vehicle: Klucel (hydroxypropylcellulose) (HPC)
[17] = dose: 400.0 mg/kg/injection, schedule: Q04DX003 (ip), vehicle: Klucel (hydroxypropylcellulose) (HPC)
[18] = dose: 100.0 mg/kg/injection, schedule: Q01DX001 (ip), vehicle: saline
[19] = dose: 200.0 mg/kg/injection, schedule: Q01DX001 (ip), vehicle: saline
[20] = dose: 400.0 mg/kg/injection, schedule: Q01DX001 (ip), vehicle: saline

Measured: T/C

COc1c(O)c2c(c3cc(C(=O)N4CCc5c4c(O)c(OC)c4[nH]c(C(=O)N6CC7CC78C6=CC(=O)c6[nH]cc(C)c68)cc54)[nH]c13)CCN2C(N)=O (stereo not drawn)
inactive: dose: 6.25 micrograms/kg/injection, schedule: Q01DX009 (ip), vehicle: DMSO 124 % of control | dose: 12.5 micrograms/kg/injection, schedule: Q01DX009 (ip), vehicle: DMSO 111 % of control | dose: 100.0 micrograms/kg/injection, schedule: Q01DX009 (ip), vehicle: DMSO 96 % of control

CC(C)(C)c1cc2c(cc1O)C(C)(C)CCC2(C)C
inactive: [1] 105 % of control | [2] 105 % of control | [3] 98 % of control

CCN(CC#CCOc1ccc(Cl)cc1Cl)c1ccccc1
inactive: [1] 109 % of control | [2] 98 % of control | [3] 102 % of control

CC(=O)OC1CC2CC(C1C)C2(C)C (stereo not drawn)
inactive: dose: 12.5 mg/kg/injection, schedule: Q01DX009 (ip), vehicle: saline with Tween-80 105 % of control | dose: 25.0 mg/kg/injection, schedule: Q01DX009 (ip), vehicle: saline with Tween-80 91 % of control | dose: 50.0 mg/kg/injection, schedule: Q01DX009 (ip), vehicle: saline with Tween-80 100 % of control

CC(C)(C(=Nc1ccccc1)N1CCCCC1)c1ccccc1
inactive: [4] 97 % of control | [5] 94 % of control | [6] 96 % of control

Cc1cc(O)c(C)c(C(=O)O)c1
inactive: [7] 98 % of control | [8] 106 % of control | dose: 400.0 mg/kg/injection, schedule: Q01DX001 (ip), vehicle: carboxymethylcellulose (CMC) 98 % of control

CN1C(=O)c2c(Cl)c(Cl)c(Cl)c(Cl)c2C1=O
inactive: dose: 222.0 mg/kg/injection, schedule: Q01DX Z (ip), vehicle: methylcellulose (MC) 105 % of control | dose: 333.0 mg/kg/injection, schedule: Q01DX Z (ip), vehicle: methylcellulose (MC) 105 % of control | dose: 500.0 mg/kg/injection, schedule: Q01DX Z (ip), vehicle: methylcellulose (MC) 98 % of control

OCCOC(O)C(Cl)(Cl)Cl (stereo not drawn)
inactive: dose: 100.0 mg/kg/injection, schedule: Q04DX002 (ip), vehicle: saline 100 % of control | dose: 200.0 mg/kg/injection, schedule: Q04DX002 (ip), vehicle: saline 92 % of control | dose: 400.0 mg/kg/injection, schedule: Q04DX002 (ip), vehicle: saline 95 % of control

c1ccc(C2=NN=C(c3ccccc3)CCC2)cc1
inactive: dose: 100.0 mg/kg/injection, schedule: Q04DX003 (ip), vehicle: acetone 95 % of control | dose: 200.0 mg/kg/injection, schedule: Q04DX003 (ip), vehicle: acetone 86 % of control | dose: 400.0 mg/kg/injection, schedule: Q04DX003 (ip), vehicle: acetone 98 % of control

CC(O)C(NC(=O)CNC(=O)OCc1ccccc1)C(=O)OCc1ccccc1 (stereo not drawn) (Cbz-Gly-[ξT]-OBn)
inactive: [9] 97 % of control | dose: 200.0 mg/kg/injection, schedule: Q04DX003 (ip), vehicle: saline with Tween-80 105 % of control | dose: 400.0 mg/kg/injection, schedule: Q04DX003 (ip), vehicle: saline with Tween-80 97 % of control

Cn1nnnc1N/N=C/c1ccccc1
inactive: [10] 98 % of control | [11] 95 % of control | [12] 95 % of control

O=C1CCC(N2C(=O)C3CC=CCC3C2=O)C(=O)N1 (stereo not drawn)
inactive: dose: 100.0 mg/kg/injection, schedule: Q04DX003 (ip), vehicle: saline 104 % of control and 109 % of control | dose: 200.0 mg/kg/injection, schedule: Q04DX003 (ip), vehicle: saline 104 % of control and 106 % of control | dose: 400.0 mg/kg/injection, schedule: Q04DX003 (ip), vehicle: saline 97 % of control and 112 % of control

[Cl][Hg][CH2]C1COC([CH2][Hg][Cl])CO1 (stereo not drawn)
inactive: dose: 25.0 mg/kg/injection, schedule: Q01DX001 (ip), vehicle: carboxymethylcellulose (CMC) 90 % of control | [13] 92 % of control | [7] 95 % of control

Cl/C(=C\c1ccccc1)c1ccccc1
inactive: [14] 96 % of control | [15] 95 % of control | [16] 96 % of control | [17] 101 % of control

C=CCc1c[nH]c(=O)[nH]c1=O.[Hg]
inactive: dose: 12.5 mg/kg/injection, schedule: Q01DX009 (ip), vehicle: Klucel (hydroxypropylcellulose) (HPC) 93 % of control | dose: 25.0 mg/kg/injection, schedule: Q01DX009 (ip), vehicle: Klucel (hydroxypropylcellulose) (HPC) 98 % of control | [14] 92 % of control | [15] 89 % of control | [16] 97 % of control

Cc1cc(=O)cc(C)[nH]1
inactive: [18] 90 % of control | [19] 94 % of control | [20] 92 % of control

CCOc1ccc(C=C(C#N)C#N)cc1OCC
inactive: [18] 105 % of control | [19] 102 % of control | [20] 90 % of control

C=CCc1ccc(OC(=O)Nc2ccc(S(=O)(=O)N(C)C)cc2)c(OC)c1
inactive: [18] 94 % of control | [19] 91 % of control | [20] 91 % of control

C=C(C)CNC(=O)Oc1cccc(NC(=O)OC)c1
inactive: dose: 100.0 mg/kg/injection, schedule: Q01DX001 (ip), vehicle: saline with Tween-80 97 % of control | dose: 200.0 mg/kg/injection, schedule: Q01DX001 (ip), vehicle: saline with Tween-80 95 % of control | dose: 400.0 mg/kg/injection, schedule: Q01DX001 (ip), vehicle: saline with Tween-80 92 % of control

Cc1ccc(S(=O)(=O)N(CCCc2ccccc2)c2ccc(C(=O)NC(CCC(=O)O)C(=O)O)cc2)cc1 (stereo not drawn)
inactive: dose: 75.0 mg/kg/injection, schedule: Q01DX001 (ip), vehicle: gum acacia 101 % of control | dose: 150.0 mg/kg/injection, schedule: Q01DX001 (ip), vehicle: gum acacia 107 % of control | dose: 300.0 mg/kg/injection, schedule: Q01DX001 (ip), vehicle: gum acacia 93 % of control

CC/C(=N/N=C(N)N)c1ccc(NC(=O)Nc2ccc(/C(CC)=N/N=C(N)N)cc2)cc1
inactive: dose: 2.5 mg/kg/injection, schedule: Q01DX009 (ip), vehicle: saline 103 % of control | dose: 5.0 mg/kg/injection, schedule: Q01DX009 (ip), vehicle: saline 121 % of control | dose: 10.0 mg/kg/injection, schedule: Q01DX009 (ip), vehicle: saline 107 % of control

Nc1cc(F)c2c(c1)Cc1cc(F)ccc1-2
inactive: [13] 101 % of control | [7] 109 % of control | [8] 95 % of control

O=[N+]([O-])c1ccc2c([N+](=O)[O-])ccc3c2c1CC3
inactive: [10] 94 % of control | [11] 90 % of control | [12] 92 % of control

O=C1C(=O)c2ccccc2C(O)=C1C(C1=C(O)c2ccccc2C(=O)C1=O)c1ccc(Cl)cc1
inactive: [4] 86 % of control | [5] 86 % of control | [6] 86 % of control

O=C(Nc1ccc(Cl)cc1Cl)Nc1cc(C(F)(F)F)ccc1Cl
inactive: dose: 100.0 mg/kg/injection, schedule: Q01DX009 (ip), vehicle: saline 98 % of control | dose: 200.0 mg/kg/injection, schedule: Q01DX009 (ip), vehicle: saline 95 % of control | dose: 400.0 mg/kg/injection, schedule: Q01DX009 (ip), vehicle: saline 92 % of control

O=C(NC(Cc1ccccc1)C(=O)Oc1cc(Cl)c(Cl)cc1Cl)OCc1ccccc1 (stereo not drawn)
inactive: dose: 100.0 mg/kg/injection, schedule: Q01DX001 (ip), vehicle: other 91 % of control | dose: 200.0 mg/kg/injection, schedule: Q01DX001 (ip), vehicle: other 91 % of control | dose: 400.0 mg/kg/injection, schedule: Q01DX001 (ip), vehicle: other 97 % of control

O=c1[nH]c2ccccc2nc1C(Br)Br
inactive: [16] 97 % of control | dose: 200.0 mg/kg/injection, schedule: Q04DX003 (ip), vehicle: Klucel (hydroxypropylcellulose) (HPC) 105 % of control | [17] 97 % of control

CCCCCCOCCN1CCN(CCCN2c3ccccc3Sc3ccc(C(F)(F)F)cc32)CC1
inactive: dose: 12.5 mg/kg/injection, schedule: Q04DX003 (ip), vehicle: saline with Tween-80 106 % of control | dose: 25.0 mg/kg/injection, schedule: Q04DX003 (ip), vehicle: saline with Tween-80 101 % of control | dose: 50.0 mg/kg/injection, schedule: Q04DX003 (ip), vehicle: saline with Tween-80 101 % of control | [9] 93 % of control
